The text below walks through data of patent US12649751B2 (Arcus Biosciences, Inc., priority 2022, dated 2026).

Structures are written as SMILES. Bounds are passed on as bounds.

The target of the assay is HPK1 (Homo sapiens, UniProt Q92918). The experiment in a line: HPK1 Biochemical Assay (ADP-Glo luminescence; low ATP 10 μM or high ATP 200 μM). As to conditions: 2 nM HPK1, 10 μM ATP; read-out: Biochemical Potency (low ATP). How it is done: Dose-response assays were performed in Corning® Low Volume 384-well assay plates containing 100 nL of 22 serial 2-fold compound dilutions. Wells containing DMSO alone were used as negative control. A kinase mixture (5 μL) containing 2 nM HPK1 (or 5 nM for high ATP assay) in assay buffer (50 mM Hepes pH 7.4, 10 mM MgCl2, 0.01% Brij-15, 0.01% bovine serum albumin, and 1 mM dithiothreitol) was added to the assay plates and incubated at 25° C. for 1 hour. Wells without HPK1 were used as positive control. A […] of 10 μM ATP (or 200 μM for high ATP) and 0.2 μg/μL […] was then added to the wells, resulting in a 10 μL total reaction volume. Following incubation of the assay plates at 25° C. for 1 hour, 10 μL of ADP-Glo reagent was added to the wells and the plates were incubated at 25° C. for a further 40 minutes (or 1 hour for high ATP assay). Finally, 20 μL of Kinase Detection Reagent was added, and the plates were incubated for another 30 minutes at 25° C. An Envision plate reader was then used to detect the luminescence signals. IC50 values were determined by fitting the data to a standard 4-parameter logistic equation. The results are summarized in the Biochemical Potency columns of Tables 4 and 5 below (Biochemical Potency (high ATP); Biochemical Potency (low ATP)).
Chain of HPK1 (Q92918 whole entry, species assumed): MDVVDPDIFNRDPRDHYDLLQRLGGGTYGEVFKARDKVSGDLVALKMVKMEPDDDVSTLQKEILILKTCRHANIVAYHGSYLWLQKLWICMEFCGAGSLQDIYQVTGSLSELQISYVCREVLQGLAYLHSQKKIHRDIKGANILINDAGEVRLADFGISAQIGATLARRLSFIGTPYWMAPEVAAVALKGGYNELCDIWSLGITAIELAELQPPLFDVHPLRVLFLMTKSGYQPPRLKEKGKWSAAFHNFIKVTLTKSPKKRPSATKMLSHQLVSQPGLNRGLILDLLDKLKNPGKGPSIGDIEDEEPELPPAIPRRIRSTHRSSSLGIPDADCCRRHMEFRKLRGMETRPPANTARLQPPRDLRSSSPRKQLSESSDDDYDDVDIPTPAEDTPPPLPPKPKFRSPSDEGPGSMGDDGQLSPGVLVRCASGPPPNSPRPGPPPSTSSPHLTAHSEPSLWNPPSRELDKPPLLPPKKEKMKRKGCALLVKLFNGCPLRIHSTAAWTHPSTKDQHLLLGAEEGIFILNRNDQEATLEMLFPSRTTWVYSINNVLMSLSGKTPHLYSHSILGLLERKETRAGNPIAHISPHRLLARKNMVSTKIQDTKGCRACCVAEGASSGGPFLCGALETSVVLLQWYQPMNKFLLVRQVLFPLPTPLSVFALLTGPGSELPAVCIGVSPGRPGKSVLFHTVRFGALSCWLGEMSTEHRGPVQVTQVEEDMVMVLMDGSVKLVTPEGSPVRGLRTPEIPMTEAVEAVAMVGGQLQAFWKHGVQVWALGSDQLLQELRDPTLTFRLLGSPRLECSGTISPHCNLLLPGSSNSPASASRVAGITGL
On the technique in general: ADP-Glo turns the ADP formed in a reaction into a luminescent signal.

For `CN(C)C(=O)c1cc(-c2nc3cc(Nc4ccnc(N5C[C@@H]6C[C@H]5CN6C)n4)ncc3s2)ccn1` [Example 127, N,N-Dimethyl-4-[6-({2-[(1S,4S)-5-methyl-2,5-diazabicyclo[2.2.1]heptan-2-yl]pyrimidin-4-yl}amino)-[1,3]thiazolo[5,4-c]pyridin-2-yl]pyridine-2-carboxamide], the IC50 was below 0.1 µM.
As to `Cc1ncccc1-c1nc2cc(Nc3cccc(N4C[C@@H]5C[C@H]4CN5C)n3)ncc2s1` [Example 138, 6-[(1S,4S)-5-Methyl-2,5-diazabicyclo[2.2.1]heptan-2-yl]-N-[2-(2-methylpyridin-3-yl)-[1,3]thiazolo[5,4-c]pyridin-6-yl]pyridin-2-amine], the IC50 is below 0.1 µM.
As to `CN1C[C@@H]2C[C@H]1CN2c1cncc(Nc2cc3nc(-c4cccc(N5CCCC5=O)c4)sc3cn2)n1` [Example 143, 1-{3-[6-({6-[(1S,4S)-5-Methyl-2,5-diazabicyclo[2.2.1]heptan-2-yl]pyrazin-2-yl}amino)-[1,3]thiazolo[5,4-c]pyridin-2-yl]phenyl}pyrrolidin-2-one], the IC50 is below 0.1 µM.
Then `CN1C[C@@H]2C[C@H]1CN2c1cncc(Nc2cc3nc(-c4ccncc4)sc3cn2)n1` [Example 146, 6-[(1S,4S)-5-Methyl-2,5-diazabicyclo[2.2.1]heptan-2-yl]-N-[2-(pyridin-4-yl)-[1,3]thiazolo[5,4-c]pyridin-6-yl]pyrazin-2-amine], with below 0.1 µM.
For `CN1C[C@@H]2C[C@H]1CN2c1cncc(Nc2cc3nc(-c4cccc(C(=O)N5CCCC5)c4)sc3cn2)n1` [Example 147, 6-[(1S,4S)-5-Methyl-2,5-diazabicyclo[2.2.1]heptan-2-yl]-N-{2-[3-(pyrrolidine-1-carbonyl)phenyl]-[1,3]thiazolo[5,4-c]pyridin-6-yl}pyrazin-2-amine] the value was below 0.1 µM; for `Cc1cccnc1-c1nc2cc(Nc3ccnc(N4C[C@@H]5C[C@H]4CN5)n3)ncc2s1` [Example 149, 2-[(1S,4S)-2,5-Diazabicyclo[2.2.1]heptan-2-yl]-N-[2-(3-methylpyridin-2-yl)-[1,3]thiazolo[5,4-c]pyridin-6-yl]pyrimidin-4-amine], below 0.1 µM.
For `Cc1cccnc1-c1nc2cc(Nc3cncc(N4C[C@@H](N)C[C@H]4CO)n3)ncc2s1` [Example 150, [(2S,4S)-4-Amino-1-(6-{[2-(3-methylpyridin-2-yl)-[1,3]thiazolo[5,4-c]pyridin-6-yl]amino}pyrazin-2-yl)pyrrolidin-2-yl]methanol] the value was below 0.1 µM.
Turning to `CN1C[C@@H]2C[C@H]1CN2c1cncc(Nc2cc3nc(-c4ccnc(C(C)(C)O)c4)sc3cn2)n1` [Example 151, 2-{4-[6-({6-[(1S,4S)-5-Methyl-2,5-diazabicyclo[2.2.1]heptan-2-yl]pyrazin-2-yl}amino)-[1,3]thiazolo[5,4-c]pyridin-2-yl]pyridin-2-yl}propan-2-ol], the IC50 is below 0.1 µM.
For `CN1C[C@@H]2C[C@H]1CN2c1cncc(Nc2cc3nc(-c4cccc(C(C)(C)O)c4)sc3cn2)n1` [Example 152, 2-{3-[6-({6-[(1S,4S)-5-Methyl-2,5-diazabicyclo[2.2.1]heptan-2-yl]pyrazin-2-yl}amino)-[1,3]thiazolo[5,4-c]pyridin-2-yl]phenyl}propan-2-ol] the value was below 0.1 µM.
In the case of `Cc1cccnc1-c1nc2cc(Nc3cnc(C)c(N4C[C@@H]5C[C@H]4CN5C)n3)ncc2s1` [Example 154, 5-Methyl-6-[(1S,4S)-5-methyl-2,5-diazabicyclo[2.2.1]heptan-2-yl]-N-[2-(3-methylpyridin-2-yl)-[1,3]thiazolo[5,4-c]pyridin-6-yl]pyrazin-2-amine], the IC50 is below 0.1 µM.
Then `CN1C[C@@H]2C[C@H]1CN2c1cncc(Nc2cc3nc(-c4ncco4)sc3cn2)n1` [Example 156, 6-[(1S,4S)-5-Methyl-2,5-diazabicyclo[2.2.1]heptan-2-yl]-N-[2-(1,3-oxazol-2-yl)-[1,3]thiazolo[5,4-c]pyridin-6-yl]pyrazin-2-amine], with below 0.1 µM.
